# Measurements: US10442788B2, “Hepatitis B antiviral agents” (ENANTA PHARMACEUTICALS, INC., priority 2015, dated 2019)
# Assays:
# HBV = assay: HepAD38 antiviral assay: reduction of viral product accumulation (virion DNA by qPCR, HBsAg or HBeAg by ELISA); format: cell-based; settings: Hepatitis B virus, 120 h; HepAD38 cells, five days after compound addition; 50% reduction of viral product accumulation relative to no drug controls; read-out: HepAD38 EC50
# Outline: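 Tetracycline-washed HepAD38 cells treated with compound (DMSO diluted 1:200) for 5 days, or 8 days with media and compound refreshed on d2 and d5. Virion DNA from lysates quantified by qPCR; HBsAg or HBeAg by ELISA. EC50 is the concentration giving 50% reduction versus no-drug controls, reported as ranges A<1 μM, B 1-10 μM, C>10 μM.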
# [1] = Compound toxicity, ATPLite total ATP levels; format: cell-based; settings: human, HepAD38 cells; 15,000 cells/well, three days after compound addition; 50% reduction of total ATP levels relative to no drug controls
# Procedure: Methods: HepAD38 cells are maintained as previously reported (Ladner et al, Antimicrob. Agents Chemother. 1997, […], 1715). Briefly, cells are passaged upon attaining confluency in DMEM/F12 media in the presence of 10% FBS, Penn/Strep, 250 μg/mL G418, and 1 ug/ml tetracycline. Novel compounds are screened by first washing cells three times with PBS to remove tetracycline, and plating in 96 well plates at 35,000 cells/well. Compounds dissolved in DMSO are then diluted 1:200 into wells containing cells. Five days after compound addition, material is harvested for analysis. For an extended 8 day analysis, cells are plated and treated as described above, but media and compound are refreshed on d2 and d5 post initial treatment.
# Compound toxicity is evaluated by seeding cells at 15,000 cells/well and treating with compound as described above. Three days after compound addition, cells are treated with ATPLite reagent and compound concentrations that reduce total ATP levels in wells by 50% relative to no drug controls (CC50) are reported; CC50 ranges are as follows: A>30 μM; B 10-30 μM; C<10 μM.
SMILES,EC50 (HBV) [µM],CC50 at 3 days [1] [µM]
COC(=O)NCCCNS(=O)(=O)c1cc(-c2ncc(-c3ccc(F)c(Br)c3)n2C(=O)OC)ccc1Cl [Example 63],1 to 10,10 to 30
O=S(=O)(NCCO)c1cc(-c2nc(-c3ccc(Br)c(F)c3)c[nH]2)ccc1Cl [Example 115],< 1,> 30
O=S(=O)(c1cc(-c2nc(-c3ccc(Br)c(Cl)c3)c[nH]2)ccc1Cl)N1CCC(O)CC1 [Example 82],< 1,< 10
CC(C)OC(=O)NCCCNS(=O)(=O)c1cc(-c2nc(-c3ccc(Br)c(F)c3)c[nH]2)ccc1Cl [Example 140],< 1,> 30
O=S(=O)(c1cc(-c2nc(-c3cccc(Br)c3)c[nH]2)ccc1Cl)N1CCC(O)CC1 [Example 54],< 1,> 30
O=S(=O)(c1cc(-c2nc(-c3ccc(Cl)c(F)c3)c[nH]2)ccc1Cl)N1CCC(O)CC1 [Example 72],< 1,10 to 30
O=S(=O)(c1cc(-c2cc(-c3ccc(F)c(Br)c3)[nH]n2)ccc1Cl)N1CCC(O)CC1 [Example 24],1 to 10,< 10
COc1cc(-c2cnc(-c3ccc(Cl)c(S(=O)(=O)N4CCC(O)CC4)c3)[nH]2)ccc1F [Example 46],< 1,> 30
O=S(=O)(c1cc(-c2ncc(-c3ccccc3)[nH]2)ccc1Cl)N1CCC(O)CC1 [Example 11],1 to 10,> 30
CNCCNS(=O)(=O)c1cc(-c2nc(-c3ccc(Br)c(F)c3)c[nH]2)ccc1Cl [Example 118],< 1,> 30
O=S(=O)(c1cc(-c2ncc(-c3cccs3)[nH]2)ccc1Cl)N1CCC(O)CC1 [Example 21],< 1,> 30
O=S(=O)(c1cc(-c2nc(-c3ccc(Cl)c(Br)c3)c[nH]2)ccc1Cl)N1CCC(O)CC1 [Example 87],< 1,< 10
CN(CCO)S(=O)(=O)c1cc(-c2nc(-c3ccc(Br)c(F)c3)c[nH]2)ccc1Cl [Example 104],< 1,10 to 30
CC(C)(C)OC(=O)N1CCN(S(=O)(=O)c2cc(-c3nc(-c4ccc(Br)c(F)c4)c[nH]3)ccc2Cl)CC1 [Example 142],1 to 10,< 10
O=S(=O)(c1cc(-c2ncc(-c3ccc(F)c(Br)c3)[nH]2)ccc1Cl)N1CCCCC1 [Example 37],< 1,< 10
COC(=O)CN(C)S(=O)(=O)c1cc(-c2nc(-c3ccc(Br)c(F)c3)c[nH]2)ccc1Cl [Example 126],> 10,> 30
O=S(=O)(c1c(Cl)ccc2c(-c3cc(F)c(F)c(F)c3)n[nH]c12)N1CCC(O)CC1 [Example 5],1 to 10,> 30
O=S(=O)(c1cc(-c2ncc(-c3ccc(F)c(O)c3)[nH]2)ccc1Cl)N1CCC(O)CC1 [Example 65],> 10,> 30
CC(O)C(C)(C)NS(=O)(=O)c1cc(-c2nc(-c3ccc(Br)c(F)c3)c[nH]2)ccc1Cl (stereo not drawn) [Example 134],< 1,> 30
COC(=O)[C@@H](NS(=O)(=O)c1cc(-c2ncc(-c3ccc(F)c(Br)c3)[nH]2)ccc1Cl)C(C)C [Example 60],1 to 10,10 to 30
O=S(=O)(c1cc(-c2ncc(-c3ccc(F)c(C4CC4)c3)[nH]2)ccc1Cl)N1CCC(O)CC1 [Example 48],< 1,10 to 30
O=S(=O)(c1cc(-c2nc(-c3ccc(Br)c(F)c3)c[nH]2)ccc1Cl)N1CCC(O)C1 (stereo not drawn) [Example 109],< 1,< 10
O=C1CN(S(=O)(=O)c2cc(-c3ncc(-c4ccc(F)c(Br)c4)[nH]3)ccc2Cl)CCN1 [Example 64],1 to 10,10 to 30
O=S(=O)(c1cc(-c2nc(-c3cccc(C(F)(F)F)c3)c[nH]2)ccc1Cl)N1CCC(O)CC1 [Example 94],< 1,10 to 30
CN1CCN(S(=O)(=O)c2cc(-c3nc(-c4ccc(Br)c(F)c4)c[nH]3)ccc2Cl)CC1 [Example 144],< 1,> 30
CC(C)(C)OC(=O)NCCCNS(=O)(=O)c1cc(-c2ncc(-c3ccc(F)c(Br)c3)[nH]2)ccc1Cl [Example 56],< 1,< 10
CC(C)N(C)S(=O)(=O)c1cc(-c2nc(-c3ccc(Br)c(F)c3)c[nH]2)ccc1Cl [Example 112],< 1,> 30

SMILES,EC50 (HBV) [µM],CC50 at 3 days [1] [µM]
O=C1CCN(S(=O)(=O)c2cc(-c3ncc(-c4ccc(F)c(Br)c4)[nH]3)ccc2Cl)CC1 [Example 31],1 to 10,10 to 30
O=S(=O)(c1cc(-c2nc(-c3ccc(Br)c(F)c3)c[nH]2)ccc1Cl)N1CCC(F)CC1 [Example 123],< 1,> 30
O=S(=O)(c1cc(-c2nc(-c3ccc(Br)c(F)c3)c[nH]2)ccc1Cl)N1CCCC(O)C1 (stereo not drawn) [Example 110],< 1,> 30
O=S(=O)(c1cc(-c2nc(-c3ccc(Br)c(F)c3)c[nH]2)ccc1Cl)N1CCC(O)(CO)CC1 [Example 133],< 1,> 30
CS(=O)(=O)CCNS(=O)(=O)c1cc(-c2nc(-c3ccc(Br)c(F)c3)c[nH]2)ccc1Cl [Example 117],< 1,> 30
COC(=O)CNS(=O)(=O)c1cc(-c2nc(-c3ccc(Br)c(F)c3)c[nH]2)ccc1Cl [Example 125],> 10,> 30
O=S(=O)(c1cc(-c2ncc(-c3ccc(F)c(Br)c3)[nH]2)ccc1Cl)N1CCC(F)CC1 [Example 44],< 1,< 10
N#Cc1ccc(-c2cnc(-c3ccc(Cl)c(S(=O)(=O)N4CCC(O)CC4)c3)[nH]2)cc1F [Example 47],< 1,> 30
COC(=O)N1CCN(S(=O)(=O)c2cc(-c3nc(-c4ccc(Br)c(F)c4)c[nH]3)ccc2Cl)CC1 [Example 143],< 1,> 30
N#Cc1cc(-c2cc(-c3ccc(Cl)c(S(=O)(=O)N4CCC(O)CC4)c3)n[nH]2)ccc1F [Example 27],1 to 10,> 30
O=S(=O)(c1cc(-c2ncc(-c3ccc(F)c(Br)c3)[nH]2)ccc1Cl)N1CCOCC1 [Example 42],< 1,10 to 30
O=S(=O)(c1cc(-c2nc(-c3ccc(C(F)(F)F)c(F)c3)c[nH]2)ccc1Cl)N1CCC(O)CC1 [Example 83],< 1,< 10
O=S(=O)(c1cc(-c2nc(-c3ccc(Br)c(F)c3)c[nH]2)ccc1Cl)N1CCCC(O)CC1 (stereo not drawn) [Example 137],< 1,> 30
O=S(=O)(c1cc(-c2nc(-c3ccc(C4CC4)cc3)c[nH]2)ccc1Cl)N1CCC(O)CC1 [Example 101],< 1,< 10
O=S(=O)(c1cc(-c2ncc(-c3ccc(F)c(Cl)c3)[nH]2)ccc1Cl)N1CCC(O)CC1 [Example 13],< 1,10 to 30
C#Cc1cc(-c2cc(-c3ccc(Cl)c(S(=O)(=O)N4CCC(O)CC4)c3)n[nH]2)ccc1F [Example 28],< 1,< 10
COC(=O)[C@@H]1CCCN1S(=O)(=O)c1cc(-c2ncc(-c3ccc(F)c(Br)c3)[nH]2)ccc1Cl [Example 36],> 10,> 30
O=S(=O)(c1cc(-c2nc(-c3ccc(Br)c(F)c3)c[nH]2)ccc1Cl)N1CCC(O)C(F)C1 (stereo not drawn) [Example 114],< 1,> 30
O=S(=O)(c1cc(-c2nc(-c3cccc(OC(F)(F)F)c3)c[nH]2)ccc1Cl)N1CCC(O)CC1 [Example 95],1 to 10,> 30
O=S(=O)(c1cc(-c2nc(-c3ccc(Br)c(F)c3)c[nH]2)ccc1Cl)N1CCCCC(O)C1 (stereo not drawn) [Example 132],< 1,> 30
COC(=O)NCC(C)NS(=O)(=O)c1cc(-c2nc(-c3ccc(Br)c(F)c3)c[nH]2)ccc1Cl (stereo not drawn) [Example 120],< 1,< 10
C#Cc1ccc(-c2c[nH]c(-c3ccc(Cl)c(S(=O)(=O)N4CCC(O)CC4)c3)n2)cc1F [Example 102],1 to 10,> 30
O=S(=O)(c1cc(-c2ncc(-c3cccc(F)c3)[nH]2)ccc1Cl)N1CCC(O)CC1 [Example 49],< 1,10 to 30
Cc1cc(-c2cnc(-c3ccc(Cl)c(S(=O)(=O)N4CCC(O)CC4)c3)[nH]2)ccc1F [Example 45],< 1,> 30
CCOC(=O)NCCCNS(=O)(=O)c1cc(-c2nc(-c3ccc(Br)c(F)c3)c[nH]2)ccc1Cl [Example 147],< 1,> 30
Cc1ccccc1-c1c[nH]c(-c2ccc(Cl)c(S(=O)(=O)N3CCC(O)CC3)c2)n1 [Example 121],1 to 10,> 30
O=S(=O)(c1cc(-c2ncc(-c3ccc(F)c(F)c3)[nH]2)cs1)N1CCC(O)CC1 [Example 7],1 to 10,> 30
